Drawing on patent US20250230171A1 (MOMA Therapeutics, Inc., priority 2023, published 2025), this text covers IC50 for 31 compounds.

Read-outs that look alike come from different tables or passages of the source. A value given as a limit tells only on which side of the number the result lay.

For experiment [1], the target named is biotinylated Avi-POLθ[2-894] (Homo sapiens (Human), UniProt O75417). Kind of experiment: POLθ ATPase assay (ADP-Glo). The settings on record: n=2, read-out: Biochemical ATPase ADPGlo IC50.
A further experiment concerns DLD1 BRCA2 (−/−) cells. Kind of experiment: 7-day cell viability assay (CellTiter-Glo), DLD1 BRCA2 (−/−). The format is cell-based, human. The settings on record: n=2, read-out: Viability IC50 (uM) DLD1 BRCA2 null. On the procedure: (§1) Cell lines DLD1 WT and DLD1 BRCA2 (−/−) (Horizon Discovery Cat No. HD PAR-008 and HD-105-007) were plated in 384-well culture plates at seeding densities of 100cells/50 ul/well and 200 cells/50 uL/well respectively. The seeding densities are pre-determined from the growth curve kinetics performed to ensure log linear phase of cell growth for these 2 cell lines. These assay plates are then placed in the incubator at 37° C., 5% CO2, relative humidity >90% for a few hours before addition of test compounds. Compounds are dispensed using the Tecan HPD300 or Echo based on the plate map in the appropriate wells of the 384-well plates. The cells are treated with nine-point dose response with 3-fold serial dilutions of test compounds starting at 10 uM top concentration. After addition of the test compounds, the plates are incubated at 37° C., 5% CO2, relative humidity >90% for 7 days. CellTiter-Glo (Promega Cat. No. G7573), ATP detection reagent is prepared according to manufacturer's specifications. Cell assay plates are removed from incubator and bring to room temperature (RT) by letting them sit at bench top for at least 15 min. Using the MultiDrop liquid handler or a multichannel pipette, 35 μL/well of CTG is added and the plates are then placed shakes for 5 seconds, RT.
A general note: Cellular ATP, detected with luciferase, serves as a proxy for viable cell number.

A further experiment relates to DLD1 WT cells. Briefly: 7-day cell viability assay (CellTiter-Glo), DLD1 parental (WT). Type of experiment: cell-based, human. The settings on record: 7-day CellTiter-Glo, n=2. On the procedure:
as §1

Setting [2] is: Homo sapiens, DLD-1, 168 h, 7-day viability.

biotinylated Avi-POLθ[2-894], sequence (O75417 2-894): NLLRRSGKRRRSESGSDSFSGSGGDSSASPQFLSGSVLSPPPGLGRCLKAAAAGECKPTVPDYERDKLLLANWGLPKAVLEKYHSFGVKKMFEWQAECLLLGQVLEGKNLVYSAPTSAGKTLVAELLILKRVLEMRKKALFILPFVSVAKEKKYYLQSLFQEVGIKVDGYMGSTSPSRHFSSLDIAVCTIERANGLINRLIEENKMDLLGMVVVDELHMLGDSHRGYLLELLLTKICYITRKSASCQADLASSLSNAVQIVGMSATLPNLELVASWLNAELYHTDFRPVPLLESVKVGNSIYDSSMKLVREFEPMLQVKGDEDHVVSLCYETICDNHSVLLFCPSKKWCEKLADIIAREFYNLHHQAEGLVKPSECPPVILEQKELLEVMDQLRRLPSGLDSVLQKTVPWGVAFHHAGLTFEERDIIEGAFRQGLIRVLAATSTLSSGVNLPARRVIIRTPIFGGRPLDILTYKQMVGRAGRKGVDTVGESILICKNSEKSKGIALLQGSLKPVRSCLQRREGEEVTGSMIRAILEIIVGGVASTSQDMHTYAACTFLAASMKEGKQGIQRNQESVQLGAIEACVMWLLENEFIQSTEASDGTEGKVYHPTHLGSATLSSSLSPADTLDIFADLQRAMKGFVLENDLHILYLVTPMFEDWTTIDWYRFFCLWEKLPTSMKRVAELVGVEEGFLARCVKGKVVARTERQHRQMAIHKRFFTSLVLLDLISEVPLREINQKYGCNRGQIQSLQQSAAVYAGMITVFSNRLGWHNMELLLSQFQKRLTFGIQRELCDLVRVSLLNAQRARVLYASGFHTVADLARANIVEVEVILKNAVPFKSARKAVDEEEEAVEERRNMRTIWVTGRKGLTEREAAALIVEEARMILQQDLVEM

As a reminder, the IC50 is the concentration that gives 50% inhibition. Consider “2′-Chloro-N-(5-(6-chloro-4-methylpicolinoyl)-5,6-dihydro-4H-pyrrolo[3,4-d]thiazol-2-yl)-5′-methoxy-6-methyl-[4,4′-bipyridine]-3-carboxamide [Example 390]”, for which the IC50 in experiment [1] (POLθ ATPase, ADP-Glo) lay in the range of 1 to 15 nM; with DLD1 BRCA2 (−/−) cells (7-day CellTiter-Glo) it was 0.001 to 0.1 µM.

With “2′-chloro-5′-methoxy-6-methyl-N-(5-(thiazole-2-carbonyl)-5,6-dihydro-4H-pyrrolo[3,4-d]thiazol-2-yl)-[4,4′-bipyridine]-3-carboxamide [Example 608]”, the IC50 with DLD1 WT cells is ≥ 10 µM.

With “2′-chloro-5′-methoxy-N-(5-(8-methoxyimidazo[1,5-a]pyridine-5-carbonyl)-5,6-dihydro-4H-pyrrolo[3,4-d]thiazol-2-yl)-6-methyl-[4,4′-bipyridine]-3-carboxamide [Example 627]”, the IC50 in the experiment with DLD1 BRCA2 (−/−) cells (7-day CellTiter-Glo) lay in the range of 0.001 to 0.1 µM.

Turning to `COc1cnc(Cl)cc1-c1cc(C)ncc1C(=O)Nc1nc2c(s1)CN(C(=O)c1ccc(Cl)nc1OC)C2` [Example 20, 2′-chloro-N-(5-(6-chloro-2-methoxynicotinoyl)-5,6-dihydro-4H-pyrrolo[3,4-d]thiazol-2-yl)-5′-methoxy-6-methyl-[4,4′-bipyridine]-3-carboxamide], the IC50 in experiment [1] fell in the range of 1 to 15 nM; in the experiment with DLD1 BRCA2 (−/−) cells (setting [2]) it was 0.001 to 0.1 µM.

Take `COc1cnc(Cl)cc1-c1cc(C)ncc1C(=O)Nc1nc2c(s1)CN(C(=O)[C@H]1C[C@@H](OC(F)(F)F)C1)C2` [Example 25, 2′-chloro-5′-methoxy-6-methyl-N-(5-((1s,3s)-3-(trifluoromethoxy)cyclobutane-1-carbonyl)-5,6-dihydro-4H-pyrrolo[3,4-d]thiazol-2-yl)-[4,4′-bipyridine]-3-carboxamide]: the IC50 in experiment [1] is 1 to 15 nM; in the experiment on DLD1 BRCA2 (−/−) cells (setting [2]) it was 0.001 to 0.1 µM.

On to `COc1cnc(Cl)cc1-c1cc(C)ncc1C(=O)Nc1nc2c(s1)CN(C(=O)c1c3c(nn1C)CCC3)C2` [Example 54, 2′-chloro-5′-methoxy-6-methyl-N-(5-(2-methyl-2,4,5,6-tetrahydrocyclopenta[c]pyrazole-3-carbonyl)-5,6-dihydro-4H-pyrrolo[3,4-d]thiazol-2-yl)-[4,4′-bipyridine]-3-carboxamide], for which the IC50 in experiment [1] fell in the range of 1 to 15 nM; with DLD1 BRCA2 (−/−) cells (setting [2]), 0.001 to 0.1 µM.

On to `CCc1nn(C)c(C(=O)N2Cc3nc(NC(=O)c4cnc(C)cc4-c4cc(Cl)ncc4OC)sc3C2)c1Cl` [Example 56, 2′-chloro-N-(5-(4-chloro-3-ethyl-1-methyl-1H-pyrazole-5-carbonyl)-5,6-dihydro-4H-pyrrolo[3,4-d]thiazol-2-yl)-5′-methoxy-6-methyl-[4,4′-bipyridine]-3-carboxamide], for which the IC50 in experiment [1] lay within 1 to 15 nM; with DLD1 BRCA2 (−/−) cells (setting [2]), 0.001 to 0.1 µM.

Consider `CCc1c(Cl)c(C(=O)N2Cc3nc(NC(=O)c4cnc(C)cc4-c4cc(Cl)ncc4OC)sc3C2)nn1C` [Example 70, 2′-chloro-N-(5-(4-chloro-5-ethyl-1-methyl-1H-pyrazole-3-carbonyl)-5,6-dihydro-4H-pyrrolo[3,4-d]thiazol-2-yl)-5′-methoxy-6-methyl-[4,4′-bipyridine]-3-carboxamide], for which the IC50 lay in the range of 1 to 15 nM in experiment [1] and 0.001 to 0.1 µM with DLD1 BRCA2 (−/−) cells (setting [2]).

As for `COc1ccccc1-c1cc(C)ncc1C(=O)Nc1nc2c(s1)CN(S(=O)(=O)NC(C)C)C2` [Example 280], the IC50 in experiment [1] was 50 to 150 nM.

Consider `COc1ccccc1-c1cc(C)ncc1C(=O)Nc1nc2c(s1)CN(C(=O)c1ccccn1)C2` [Example 323], for which the IC50 in experiment [1] was 150 to 900 nM.

On to `COc1ccccc1-c1cc(C)ncc1C(=O)Nc1nc2c(s1)CN(C(=O)C1CCCCO1)C2` (centres unmarked) [Example 324, 4-(2-methoxyphenyl)~6-methyl-N-(5-{3-oxabicyclo[3.1.0]hexane-6-carbonyl}-4H,5H,6H-pyrrolo[3,4-d][1,3]thiazol-2-yl)pyridine-3-carboxamide], for which the IC50 in experiment [1] lay within 150 to 900 nM.

On to `COc1ccccc1-c1cc(C)ncc1C(=O)Nc1nc2c(s1)CC(c1ccc(Cl)cc1)=CC2` [Example 328], for which the IC50 in experiment [1] was 150 to 900 nM.

Regarding `COc1ccccc1-c1cc(C)ncc1C(=O)Nc1nc2c(s1)CN(C(=O)OC(C)(C)C)CC2` [Example 335], in experiment [1], the IC50 lay in the range of 150 to 900 nM.

Turning to `COc1ccccc1-c1cc(C)ncc1C(=O)Nc1nc2c(s1)CN(C(=O)c1cccnn1)C2` [Example 342, 4-(2-methoxyphenyl)~6-methyl-N-[5-(1-methyl-6-oxo-1,6-dihydropyridine-3-carbonyl)-4H,5H,6H-pyrrolo[3,4-d][1,3]thiazol-2-yl]pyridine-3-carboxamide], the IC50 in experiment [1] is 150 to 900 nM.

`COc1ccccc1-c1cc(C)ncc1C(=O)Nc1nc2c(s1)CN(C(=O)C1CCNC1=O)C2` (centres unmarked) [Example 345]: the IC50 in experiment [1] lay in the range of 150 to 900 nM.

Regarding `COc1ccccc1-c1cc(C)ncc1C(=O)Nc1nc2c(s1)CN(C1CC1)C2=O` [Example 352, N-(5-cyclopropyl-4-oxo-5,6-dihydro-4H-pyrrolo[3,4-d]thiazol-2-yl)-4-(2-methoxyphenyl)-6-methylnicotinamide], in experiment [1], the IC50 is ≥ 900 nM.

As to `COc1ccccc1-c1cc(C)ncc1C(=O)Nc1nc2c(s1)CC(=O)CC2` [Example 373], the half-inhibitory concentration (IC50) in experiment [1] was ≥ 900 nM.

`COc1cnc(Cl)cc1-c1cc(C)ncc1C(=O)Nc1nc2c(s1)CN(C(=O)c1nc(C(F)F)cnc1OC)C2` [Example 468]: the IC50 in experiment [1] (POLθ ATPase, ADP-Glo) lay within 1 to 15 nM; in the experiment on DLD1 BRCA2 (−/−) cells (Homo sapiens, DLD-1, 168 h, 7-day CellTiter-Glo) it was 0.001 to 0.1 µM.

As for `COc1cnc(Cl)cc1-c1cc(C)ncc1C(=O)Nc1nc2c(s1)CN(C(=O)c1cnc(C(F)(F)F)nc1)C2` [Example 483], the IC50 in experiment [1] (POLθ ATPase, ADP-Glo) was 1 to 15 nM.

With `COc1cnc(Cl)cc1-c1cc(C)ncc1C(=O)Nc1nc2c(s1)CN(C(=O)c1cccnc1OC(F)F)C2` [Example 525], the IC50 in experiment [1] (POLθ ATPase, ADP-Glo) was 1 to 15 nM.

For `COc1cncc(C(=O)N2Cc3nc(NC(=O)c4cnc(C)cc4-c4cc(Cl)ncc4OC)sc3C2)n1` [Example 528], the IC50 in experiment [1] (POLθ ATPase, ADP-Glo) lay in the range of 1 to 15 nM.

For `COc1cnc(Cl)cc1-c1cc(C)ncc1C(=O)Nc1nc2c(s1)C[C@@H](C(=O)N[C@H]1C[C@H](O)C1)CC2` [Example 669], the IC50 in experiment [1] (POLθ ATPase, ADP-Glo) lay in the range of 150 to 900 nM.

As for `COc1cnc(Cl)cc1-c1cc(C)ncc1C(=O)Nc1nc2c(s1)C[C@@H](C(=O)N1CC[C@@H](O)C1)CC2` [Example 681], the half-maximal inhibitory concentration (IC50) in experiment [1] (POLθ ATPase, ADP-Glo) was 150 to 900 nM.

`COc1cnc(Cl)cc1-c1cc(C)ncc1C(=O)Nc1nc2c(s1)CN(C(=O)[C@@H]1CC[C@](O)(C(F)(F)F)C1)C2` [Example 734, 2′-chloro-N-(5-((1R,3R)-3-hydroxy-3-(trifluoromethyl)cyclopentane-1-carbonyl)-5,6-dihydro-4H-pyrrolo[3,4-d]thiazol-2-yl)-5′-methoxy-6-methyl-[4,4′-bipyridine]-3-carboxamide]: the IC50 in experiment [1] (POLθ ATPase, ADP-Glo) was 1 to 15 nM.

Regarding `COc1cnc(Cl)cc1-c1cc(C)ncc1C(=O)Nc1nc2c(s1)CN(C(=O)[C@H]1CC[C@](O)(C(F)(F)F)C1)C2` [Example 736, 2′-chloro-N-(S-((1S,3R)-3-hydroxy-3-(trifluoromethyl)cyclopentane-1-carbonyl)-5,6-dihydro-4H-pyrrolo[3,4-d]thiazol-2-yl)-5′-methoxy-6-methyl-[4,4′-bipyridine]-3-carboxamide], in experiment [1] (POLθ ATPase, ADP-Glo), the IC50 lay in the range of 1 to 15 nM.

`COc1cnc(Cl)cc1-c1cc(C)ncc1C(=O)Nc1nc2c(s1)CN(C(=O)[C@@H]1CCC[C@](O)(C(F)(F)F)C1)C2` [Example 761]: in experiment [1] (POLθ ATPase, ADP-Glo), the IC50 lay within 1 to 15 nM.

As to `COc1nc(C(=O)N2Cc3nc(NC(=O)c4cnc(C)cc4-c4cc(Cl)cnc4O)sc3C2)c(C)cc1C(F)(F)F` [Example 1043, 5-chloro-2-hydroxy-N-(5-(6-methoxy-3-methyl-5-(trifluoromethyl)picolinoyl)-5,6-dihydro-4H-pyrrolo[3,4-d]thiazol-2-yl)-6′-methyl-[3,4′-bipyridine]-3′-carboxamide], the IC50 in experiment [1] (POLθ ATPase, ADP-Glo) is ≥ 900 nM.

For the compound `COc1nc(C(F)(F)F)ccc1C(=O)N1Cc2nc(NC(=O)c3cnc(C)cc3-c3cc(Cl)c[nH]c3=O)sc2C1` [Example 1045, 5-chloro-N-(5-(2-methoxy-6-(trifluoromethyl)nicotinoyl)-5,6-dihydro-4H-pyrrolo[3,4-d]thiazol-2-yl)-6′-methyl-2-oxo-1,2-dihydro-[3,4′-bipyridine]-3′-carboxamide], the IC50 in experiment [1] (POLθ ATPase, ADP-Glo) was ≥ 900 nM.

Consider “N-(5-(1H-pyrazole-4-carbonyl)-5,6- dihydro-4H-pyrrolo[3,4-d]thiazol-2-yl)- 2′-chloro-5′-methoxy-6-methyl-[4,4′- bipyridine]-3-carboxamide [Example 88]”, for which, in experiment [1], the IC50 was 15 to 50 nM.

Consider “N-(5-(1H-pyrazole-5-carbonyl)-5,6- dihydro-4H-pyrrolo[3,4-d]thiazol-2-yl)- 2′-chloro-5′-methoxy-6-methyl-[4,4′- bipyridine]-3-carboxamide [Example 86]”, for which, in experiment [1], the IC50 was in the range of 1 to 15 nM.

For “N-(5-(benzo[d]oxazole-2-carbonyl)-5,6-dihydro-4H-pyrrolo[3,4-d]thiazol-2-yl)-2′-chloro-5′-methoxy-6-methyl-[4,4′-bipyridine]-3-carboxamide [Example 615]”, in the experiment with DLD1 WT cells, the IC50 was ≥ 10 µM.
